No end group written: not given here.

One experiment has as its system TNF-a spleen cells. The experiment can be described thus: Th1/Th2 cytokine profiling assay: TNF-a. Type of experiment: cell-based, Balb/c mice. Particulars: 10 micrograms per ml; Ovalbumin restimulation; 72 hours.
Another experiment deals with IL-4 spleen cells. Briefly: Th1/Th2 cytokine profiling assay: IL-4. It counts as cell-based, Balb/c mice. Particulars: 10 micrograms per ml; Ovalbumin restimulation; 72 hours.
Experiment [1] relates to hepatitis B virus (HBV) ayw strain. Briefly: HBV experimental assay system (HepG2-2.2.15, TaqMan PCR of HBV DNA). It counts as cell-based. Particulars: 10 micrograms per ml; six days; as compared to the virus control infection.
For a further experiment, the system named is IL-2 spleen cells. The experiment can be described thus: Th1/Th2 cytokine profiling assay: IL-2. Type of experiment: cell-based, Balb/c mice. Particulars: 10 micrograms per ml; Ovalbumin restimulation; 72 hours.
Experiment [2] has as its system Primary Human endothelial cells (HUVEC). The experiment can be described thus: Endothelial cell migration assay. Type of experiment: cell-based. To be noted: 10 micrograms per ml, 22 hours.
Experiment [3] concerns cyclic AMP generation in human peripheral blood mononuclear cells (PBMC). Briefly: cAMP induction assay. It counts as cell-based. To be noted: single peptides, 10 min at 37° C. How it is done: The cAMP kit was used as an immunoassay for the quantitative determination of cyclic AMP generation in human peripheral blood mononuclear cells (PBMC). PBMC were placed in 96-well microtitier plates (50 microliters of cells at 4×10^6/ml) and 50 microliters of medium alone (background control), forskolin (cAMP positive control; 50 micrograms per ml), or test peptides were added. Plates were mixed and incubated for 10 min at 37° C. and the cells were lysed by the addition of 50 microliters of 3% perchloric acid. NaOH was added to neutralize the samples. Plates were centrifuged for 15 min at 2500 rpm and the supernatants removed. The supernatants (diluted 2-fold in assay buffer) were then assayed for the levels of cAMP by ELISA.

The subject of the next experiment is IL-5 spleen cells. Briefly: Th1/Th2 cytokine profiling assay: IL-5. Type of experiment: cell-based, Balb/c mice. Particulars: 10 micrograms per ml; Ovalbumin restimulation; 72 hours.
The next experiment deals with IFNγ spleen cells. The experiment can be described thus: Th1/Th2 cytokine profiling assay: IFNγ. Type of experiment: cell-based, Balb/c mice. To be noted: 10 micrograms per ml; Ovalbumin restimulation; 72 hours.

Description for IFNγ spleen cells: (§1) The Balb/c mice (originated in 1923, it is a popular strain and is used in many different research disciplines. Also classified as an inbred from the production of 20 or more successive brother-sister matings, the Balb/c mouse is albino and small in size) were immunized on Days 1, 15, and 29 with Ovalbumin (Ovalbumin is the main protein found in egg white, commonly used to stimulate an immunological reaction in test animals) in PBS (5 micrograms/injection). On day 50, spleens of the mice were harvested (3 weeks after last boost with Ovalbumin). […] Thereafter, additional Ovalbumin was added to the cells at 10 micrograms/ml for in vitro restimulation of the cells. 72 hours later, cell supernatants were harvested and assayed using the Becton Dickinson Mouse Th1/Th2 Cytokine CBA Kit. This kit can be used to measure Interleukin-2 (IL-2), Interleukin-4 (IL-4), Interleukin-5 (IL-5), Interferon-γ (IFN-γ), and Tumor Necrosis Factor-α (TNF-α) protein levels in a single sample.
Description for IL-2 spleen cells: as §1
Description for IL-4 spleen cells: as §1
Description for IL-5 spleen cells: The Balb/c mice (originated in 1923, it is a popular strain and is used in many different research disciplines. Also classified as an inbred from the production of 20 or more successive brother-sister matings, the Balb/c mouse is albino and small in size) were immunized on Days 1, 15, and 29 with Ovalbumin (Ovalbumin is the main protein found in egg white, commonly used to stimulate an immunological reaction in test animals) in PBS (5 micrograms/injection). On day 50, spleens of the mice were harvested (3 weeks after last boost with Ovalbumin). […] Thereafter, additional Ovalbumin was added to the cells at 10 micrograms/ml for in vitro restimulation of the cells. 72 hours later, cell supernatants were harvested and assayed using the Becton Dickinson Mouse Th1/Th2 Cytokine CBA Kit.
Description for TNF-a spleen cells: as §1

On to “Tyr-Val-Met-Gly-His-Phe-Arg-Trp-Asp-Arg-Phe-NH2 (YVMGHFRWDRF-NH2) [peptide 1]”, for which the “TNF-a spleen cells; TH1 response (% of control)” value in the experiment with TNF-a spleen cells is 85.7 % of control. The “IL-4 spleen cells; TH2 response (% of control)” value in the experiment with IL-4 spleen cells is reported as 0.0 % of control. For the same substance, the “inhibition of HBV replication” value in experiment [1] came to 17.4%. Moreover, the “IL-2 spleen cells (% of control)” value with IL-2 spleen cells is listed as 101.6 % of control. In addition, in experiment [2], the “induction of the migration of human endothelial cells” value was 12%. In addition, the “induction of cAMP formation in human peripheral blood cells” value in experiment [3] is 45.4%. Also, the “IL-5 spleen cells; TH2 response (% of control)” value in the experiment with IL-5 spleen cells is 67.0 % of control. In addition, the “IFNγ spleen cells; TH1 response (% of control)” value with IFNγ spleen cells was 97.3 % of control.

For the origin of these results see patent US20100204143A1, “GAMMA 1 MSH ALONE OR IN COMBINATION WITH PENTAGASTRIN AS A THERAPEUTIC AGENT” (priority 2007, published 2010).
